# Tests used:
# Assay in all cases: B2 Post-Emergence Efficacy - Test 2
# Type in all cases: in vivo
# Sinapis arvensis (SINAR) = settings: 15 days after application, 0-100 scale
# Outline: (§1)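 The compound, dissolved in IF50 and made up as an aqueous spray with 0.2% v/v Genapol X080, is applied post-emergence to plants raised for 12 days from seed. Injury is assessed 15 days afterwards, 0 for undamaged through 100 for fully killed.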
# [1] = system: Abutilon theophrasti (ABUTH); settings: 15 days after application, 0-100 scale
# Outline: as §1
# Orysa sativa (ORYSA) = settings: 15 days after application; for Herbicidal activity ORYSA: 0-100 scale; for Herbicidal activity on a 0-100 scale, ORYSA: 0=no damage, 100=total kill
# Outline: as §1
# Sida spinosa (SIDSP) = settings: 15 days after application, 0-100 scale
# Outline: as §1
# [2] = system: Euphorbia hetrophylla (EPHHL); settings: 15 days after application, 0-100 scale
# Outline: as §1
# [3] = system: Alopecurus myosuroides (ALOMY); settings: 15 days after application, 0-100 scale
# Outline: as §1
# Bidens pilosa (BIDPI) = settings: 15 days after application, 0-100 scale
# Outline: as §1
# Veronica persica (VERPE) = settings: 15 days after application, 0-100 scale
# Outline: as §1
# [4] = system: Ipomoea hederacea (IPOHE); settings: 15 days after application, 0-100 scale
# Outline: as §1
# Beta vulgaris (BEAVA) = settings: 15 days after application, 0-100 scale
# Outline: as §1
# Lolium perenne (LOLPE) = settings: 15 days after application, 0-100 scale
# Outline: as §1
# [5] = system: Echinochloa crus galli (ECHCG); settings: 15 days after application, 0=no damage, 100=total kill
# Outline: as §1
# Poa annua (POAAN) = settings: 15 days after application, 0-100 scale
# Outline: as §1
# [6] = system: Digitaria sanguinalis (DIGSA); settings: 15 days after application, 0=no damage, 100=total kill
# Outline: as §1
# [7] = system: Panicum miliaceum (PANMI); settings: 15 days after application, 0=no damage, 100=total kill
# Outline: as §1
# Galium aparine (GALAP) = settings: 15 days after application, 0-100 scale
# Outline: as §1
# [8] = system: Xanthium strumarium (XANST); settings: 15 days after application, 0-100 scale
# Outline: as §1
# Sorghum bicolour (SORVU) = settings: 15 days after application, 0=no damage, 100=total kill
# Outline: as §1
structure (smiles),measurement,setting,value
"Cc1nn(C)c(=O)c(-c2c(F)ccc(Cl)c2CCc2ccccc2C(F)(F)F)c1O [Compound 1.066, 4-[3-chloro-6-fluoro-2-[2-[2-(trifluoromethyl)phenyl]ethyl]phenyl]-5-hydroxy-2,6-dimethyl-pyridazin-3-one]",Herbicidal activity SINAR,Sinapis arvensis (SINAR); 15 g/Ha,60
same,Herbicidal activity SINAR,Sinapis arvensis (SINAR); 30 g/Ha,60
same,Herbicidal activity SINAR,Sinapis arvensis (SINAR); 60 g/Ha,80
same,Herbicidal activity SINAR,Sinapis arvensis (SINAR); 125 g/Ha,90
same,Herbicidal activity SINAR,Sinapis arvensis (SINAR); 250 g/Ha,90
same,Herbicidal activity SINAR,Sinapis arvensis (SINAR); 500 g/Ha,90
same,Herbicidal activity ABUTH,[1]; 15 g/Ha,20
same,Herbicidal activity ABUTH,[1]; 30 g/Ha,50
same,Herbicidal activity ABUTH,[1]; 60 g/Ha,50
same,Herbicidal activity ABUTH,[1]; 125 g/Ha,90
same,Herbicidal activity ABUTH,[1]; 250 g/Ha,90
same,Herbicidal activity ABUTH,[1]; 500 g/Ha,100
same,Herbicidal activity ORYSA,Orysa sativa (ORYSA); 15 g/Ha,0
same,"Herbicidal activity on a 0-100 scale, ORYSA",Orysa sativa (ORYSA); 15 g/Ha,0
same,Herbicidal activity ORYSA,Orysa sativa (ORYSA); 30 g/Ha,0
same,"Herbicidal activity on a 0-100 scale, ORYSA",Orysa sativa (ORYSA); 30 g/Ha,0
same,Herbicidal activity ORYSA,Orysa sativa (ORYSA); 60 g/Ha,0
same,"Herbicidal activity on a 0-100 scale, ORYSA",Orysa sativa (ORYSA); 60 g/Ha,0
same,Herbicidal activity ORYSA,Orysa sativa (ORYSA); 125 g/Ha,10
same,"Herbicidal activity on a 0-100 scale, ORYSA",Orysa sativa (ORYSA); 125 g/Ha,10
same,Herbicidal activity ORYSA,Orysa sativa (ORYSA); 250 g/Ha,20
same,"Herbicidal activity on a 0-100 scale, ORYSA",Orysa sativa (ORYSA); 250 g/Ha,20
same,Herbicidal activity ORYSA,Orysa sativa (ORYSA); 500 g/Ha,40
same,"Herbicidal activity on a 0-100 scale, ORYSA",Orysa sativa (ORYSA); 500 g/Ha,40
same,Herbicidal activity SIDSP,Sida spinosa (SIDSP); 15 g/Ha,40
same,Herbicidal activity SIDSP,Sida spinosa (SIDSP); 30 g/Ha,80
same,Herbicidal activity SIDSP,Sida spinosa (SIDSP); 60 g/Ha,80
same,Herbicidal activity SIDSP,Sida spinosa (SIDSP); 125 g/Ha,90
same,Herbicidal activity SIDSP,Sida spinosa (SIDSP); 250 g/Ha,90
same,Herbicidal activity SIDSP,Sida spinosa (SIDSP); 500 g/Ha,100
same,Herbicidal activity EPHHL,[2]; 15 g/Ha,60
same,Herbicidal activity EPHHL,[2]; 30 g/Ha,70
same,Herbicidal activity EPHHL,[2]; 60 g/Ha,80
same,Herbicidal activity EPHHL,[2]; 125 g/Ha,90
same,Herbicidal activity EPHHL,[2]; 250 g/Ha,100
same,Herbicidal activity EPHHL,[2]; 500 g/Ha,100
same,Herbicidal activity ALOMY,[3]; 15 g/Ha,20
same,Herbicidal activity ALOMY,[3]; 30 g/Ha,50
same,Herbicidal activity ALOMY,[3]; 60 g/Ha,70
same,Herbicidal activity ALOMY,[3]; 125 g/Ha,80
same,Herbicidal activity ALOMY,[3]; 250 g/Ha,90
same,Herbicidal activity ALOMY,[3]; 500 g/Ha,90
same,Herbicidal activity BIDPI,Bidens pilosa (BIDPI); 15 g/Ha,50
same,Herbicidal activity BIDPI,Bidens pilosa (BIDPI); 30 g/Ha,60
same,Herbicidal activity BIDPI,Bidens pilosa (BIDPI); 60 g/Ha,70
same,Herbicidal activity BIDPI,Bidens pilosa (BIDPI); 125 g/Ha,80
same,Herbicidal activity BIDPI,Bidens pilosa (BIDPI); 250 g/Ha,90
same,Herbicidal activity BIDPI,Bidens pilosa (BIDPI); 500 g/Ha,90
same,Herbicidal activity VERPE,Veronica persica (VERPE); 15 g/Ha,80
same,Herbicidal activity VERPE,Veronica persica (VERPE); 30 g/Ha,90
same,Herbicidal activity VERPE,Veronica persica (VERPE); 60 g/Ha,100
same,Herbicidal activity VERPE,Veronica persica (VERPE); 125 g/Ha,100
same,Herbicidal activity VERPE,Veronica persica (VERPE); 250 g/Ha,100
same,Herbicidal activity VERPE,Veronica persica (VERPE); 500 g/Ha,100
same,Herbicidal activity IPOHE,[4]; 15 g/Ha,70
same,Herbicidal activity IPOHE,[4]; 30 g/Ha,90
same,Herbicidal activity IPOHE,[4]; 60 g/Ha,90
same,Herbicidal activity IPOHE,[4]; 125 g/Ha,100
same,Herbicidal activity IPOHE,[4]; 250 g/Ha,100
same,Herbicidal activity IPOHE,[4]; 500 g/Ha,100
same,Herbicidal activity BEAVA,Beta vulgaris (BEAVA); 15 g/Ha,80
same,Herbicidal activity BEAVA,Beta vulgaris (BEAVA); 30 g/Ha,80
same,Herbicidal activity BEAVA,Beta vulgaris (BEAVA); 60 g/Ha,80
same,Herbicidal activity BEAVA,Beta vulgaris (BEAVA); 125 g/Ha,80
same,Herbicidal activity BEAVA,Beta vulgaris (BEAVA); 250 g/Ha,80
same,Herbicidal activity BEAVA,Beta vulgaris (BEAVA); 500 g/Ha,90
same,Herbicidal activity LOLPE,Lolium perenne (LOLPE); 15 g/Ha,10
same,Herbicidal activity LOLPE,Lolium perenne (LOLPE); 30 g/Ha,20
same,Herbicidal activity LOLPE,Lolium perenne (LOLPE); 60 g/Ha,80
same,Herbicidal activity LOLPE,Lolium perenne (LOLPE); 125 g/Ha,90
same,Herbicidal activity LOLPE,Lolium perenne (LOLPE); 250 g/Ha,90
same,Herbicidal activity LOLPE,Lolium perenne (LOLPE); 500 g/Ha,100
same,"Herbicidal activity on a 0-100 scale, ECHCG",[5]; 15 g/Ha,20
same,"Herbicidal activity on a 0-100 scale, ECHCG",[5]; 30 g/Ha,80
same,"Herbicidal activity on a 0-100 scale, ECHCG",[5]; 60 g/Ha,90
same,"Herbicidal activity on a 0-100 scale, ECHCG",[5]; 125 g/Ha,90
same,"Herbicidal activity on a 0-100 scale, ECHCG",[5]; 250 g/Ha,90
same,"Herbicidal activity on a 0-100 scale, ECHCG",[5]; 500 g/Ha,90
same,Herbicidal activity POAAN,Poa annua (POAAN); 15 g/Ha,20
same,Herbicidal activity POAAN,Poa annua (POAAN); 30 g/Ha,70
same,Herbicidal activity POAAN,Poa annua (POAAN); 60 g/Ha,80
same,Herbicidal activity POAAN,Poa annua (POAAN); 125 g/Ha,90
same,Herbicidal activity POAAN,Poa annua (POAAN); 250 g/Ha,90
same,Herbicidal activity POAAN,Poa annua (POAAN); 500 g/Ha,90
same,"Herbicidal activity on a 0-100 scale, DIGSA",[6]; 15 g/Ha,0
same,"Herbicidal activity on a 0-100 scale, DIGSA",[6]; 30 g/Ha,20
same,"Herbicidal activity on a 0-100 scale, DIGSA",[6]; 60 g/Ha,20
same,"Herbicidal activity on a 0-100 scale, DIGSA",[6]; 125 g/Ha,40
same,"Herbicidal activity on a 0-100 scale, DIGSA",[6]; 250 g/Ha,70
same,"Herbicidal activity on a 0-100 scale, DIGSA",[6]; 500 g/Ha,70
same,"Herbicidal activity on a 0-100 scale, PANMI",[7]; 15 g/Ha,0
same,"Herbicidal activity on a 0-100 scale, PANMI",[7]; 30 g/Ha,50
same,"Herbicidal activity on a 0-100 scale, PANMI",[7]; 60 g/Ha,60
same,"Herbicidal activity on a 0-100 scale, PANMI",[7]; 125 g/Ha,80
same,"Herbicidal activity on a 0-100 scale, PANMI",[7]; 250 g/Ha,100
same,"Herbicidal activity on a 0-100 scale, PANMI",[7]; 500 g/Ha,100
same,Herbicidal activity GALAP,Galium aparine (GALAP); 15 g/Ha,20
same,Herbicidal activity GALAP,Galium aparine (GALAP); 30 g/Ha,20
same,Herbicidal activity GALAP,Galium aparine (GALAP); 60 g/Ha,20
same,Herbicidal activity GALAP,Galium aparine (GALAP); 125 g/Ha,20
same,Herbicidal activity GALAP,Galium aparine (GALAP); 250 g/Ha,30
same,Herbicidal activity GALAP,Galium aparine (GALAP); 500 g/Ha,90
same,Herbicidal activity XANST,[8]; 60 g/Ha,90
same,Herbicidal activity XANST,[8]; 250 g/Ha,100
same,Herbicidal activity XANST,[8]; 500 g/Ha,100
same,"Herbicidal activity on a 0-100 scale, SORVU",Sorghum bicolour (SORVU); 15 g/Ha,0
same,"Herbicidal activity on a 0-100 scale, SORVU",Sorghum bicolour (SORVU); 30 g/Ha,20
same,"Herbicidal activity on a 0-100 scale, SORVU",Sorghum bicolour (SORVU); 60 g/Ha,60
same,"Herbicidal activity on a 0-100 scale, SORVU",Sorghum bicolour (SORVU); 125 g/Ha,80
same,"Herbicidal activity on a 0-100 scale, SORVU",Sorghum bicolour (SORVU); 250 g/Ha,90
same,"Herbicidal activity on a 0-100 scale, SORVU",Sorghum bicolour (SORVU); 500 g/Ha,100
